Laboratory results: patent publication US20230331785A1 (priority 2018, published 2023)

Columns and labels:
Conditions in all cases: human
[1] = test system: HER2 positive NCI/ADR-RES cells (NCI/ADR-RES-HER2+)
[2] = test system: HER2 positive JIMT-1 cells
[3] = test system: HER2 positive HCC1954 cells
HCC1569 cells = test system: HCC1569 cells
NCI-N87 cells = test system: NCI-N87 cells

## CS(=O)(=O)CCNCc1ccc(-c2ccc3ncnc(Nc4ccc(OCc5cccc(F)c5)c(Cl)c4)c3c2)o1 [lapatinib]
[1]
  In Vitro Cytotoxicity CD50, NCI/ADR-RES-HER2+: 2,704 nM
[2]
  In Vitro Cytotoxicity CD50, JIMT-1: 5,650 nM
[3]
  In Vitro Cytotoxicity CD50, HCC1954: 786 nM
HCC1569 cells
  In Vitro Cytotoxicity CD50, HCC1569: 885 nM
NCI-N87 cells
  In Vitro Cytotoxicity CD50, NCI-N87: 112 nM
